Reference: PMC10459870, “A New Diterpenoid of Indonesian Scoparia dulcis Linn: Isolation and Cytotoxic Activity against MCF-7 and T47D Cell Lines” (Molecules, 2023)
In brackets after ≈: the same amount, converted by molar mass.

How the values were obtained:
[1] = tested on: MCF-7 breast cancer cells; experiment: MTT cytotoxic activity assay, MCF-7; type: cell-based; conditions: for IC50: Homo sapiens, MCF7, MTT, 24 h treatment, mean ± SD; for Selectivity Index (SI) MCF-7: IC50 Vero / IC50 MCF-7
Method: (§1) A cytotoxic test was performed to obtain an overview of the activity of the sample on the inhibition of cancer cells. The parameter used was the inhibition concentration of 50% (IC50), a concentration that inhibits cells by 50% of the cell population. The IC50 value was calculated from the results of a linear regression between log concentration and the percentage of cell viability.
(§2) The cell lines were obtained from the Parasitology Laboratory, Faculty of Medicine, Universitas Gadjah Mada, Yogyakarta, Indonesia. Each MCF-7 and T47D cell was cultured with complete media, namely, DMEM media for MCF-7 and RPMI for T47D, which contained 10% FBS, 2% penicillin–streptomycin, and 0.5% fungzon. Cultures were stored in a 5% CO2 incubator and for harvesting cells using trypsin, as well as sample solvents using DMSO.
(§3) Compound (1) was tested for its cytotoxic activity using an MTT assay on MCF-7 and T47D breast cancer cells. Briefly, 1 × 10^4 MCF-7 and T47D cells/wells were grown in 96 well plates and incubated for 24 h in a CO2 incubator. The cells were treated with sample concentrations of 200, 100, 50, 25, 12.5, and 6.25 μg/mL for MCF-7 and 50, 25, 12.5, 6.25, 3.125, and 1.5625 μg/mL for T47D and then incubated for 24 h in a CO2 incubator. After incubation, the condition of the cells was observed under a microscope. The cell media was discarded followed by washing with phosphate-buffered saline (PBS). Then 0.5 mg/mL MTT reagent, up to 100 µL, was added to each well followed by incubation again for 4 h in a CO2 incubator. The cells were observed under a microscope, and after the formazan was clear, 100 µL of SDS stopper reagent was added in 0.01 N HCl. The plate was incubated at room temperature in a dark place for 1 × 24 h, then the absorbance was read with a microplate reader at a wavelength of 595 nm. Analysis of the absorbance data for the cytotoxic test was carried out by calculating the percentage of viable cells using the following formula.
(§4) IC50 values were calculated using a linear regression between sample concentrations and the percent (%)cell viability.

T47D breast cancer cells [2] = experiment: MTT cytotoxic activity assay, T47D; type: cell-based; conditions: for IC50: Homo sapiens, T47D, MTT, 24 h treatment, mean ± SD; for Selectivity Index (SI) T47D: IC50 Vero / IC50 T47D
Method: as §1, §2, §3, §4

Vero cells = experiment: MTT cytotoxic activity assay, Vero; type: cell-based; conditions: Chlorocebus sabaeus, mean ± SD
[3] = tested on: MCF-7 breast cancer cells; experiment: Cell cycle distribution by flow cytometry (PI), MCF-7; type: cell-based
Method: (§5) Cell cycle inhibition and apoptosis induction tests were carried out on compound (1). The analysis was performed using the flow cytometry method to determine the percentage of living cells in each phase of the cell cycle.
(§6) This test was carried out on isolated samples (compound (1)). Culture confluent cells were distributed to 6-well plates, each 2000 µL (for treatment and for cell control). After 24 h of incubation, concentration series were made. The cells were washed with PBS, and 1000 µL of the sample solution with a certain concentration series was put in the well. For the control cells, 1000 µL of culture medium was added well. The cells were again incubated for 24 h in the CO incubator. After incubation, media from the 6-well plates were inserted into a conical tube, then washed with 1000 µL PBS and put into the same conical tube. Then, 200 µL trypsin-EDTA 0.25% was added and incubated for 3 min. Then, 1000 µL of culture medium was also added and resuspended until the cells were released one by one. The cells are then transferred to a conical and centrifuged at 2000 rpm for 3 min. For cell cycle observations, a deep cell precipitates conical tube covered with aluminum foil was dissolved with 400 µL of the PI reagent containing 1 mg/mL PI, 10 mg/mL RNAse, and 0.1% (v/v) Triton-X 100. The cells were resuspended and incubated for 5 min, and then the cell suspension was transferred into a flow cytometry tube for analysis (Ayers et al., 2011). For observations of apoptosis, the supernatant was discarded, then 100 µL of Annexin-V-FLUOS staining was added consisting of 100 µL binding buffer, 2 µL Annexin V, and 2 µL PI. This was followed by incubation in a dark space for 10 min and then analysis using a flow cytometer.

T47D breast cancer cells [4] = experiment: Cell cycle distribution by flow cytometry (PI), T47D; type: cell-based
Method: as §5
as §6, with “The cells were resuspended and incubated for 5 min, and then the cell suspension was transferred into a flow cytometry tube for analysis (Ayers et al., 2011). For observations of apoptosis, the supernatant was discarded, then 100 µL of Annexin-V-FLUOS staining was added consisting of 100 µL binding buffer, 2 µL Annexin V, and 2 µL PI. This was followed by incubation in a dark space for 10 min and then analysis using a flow cytometer.” left out

[5] = tested on: MCF-7 breast cancer cells; experiment: Apoptosis induction, Annexin V/PI flow cytometry, MCF-7; type: cell-based
Method: (§7) The method used in this study was the detected Annexin V method using flow cytometry, which allowed for observing the induction of apoptosis that occurs in cells following treatment. Annexin V is a member of a family of phospholipid-binding proteins that are strongly negatively charged on the cell membrane. Cell death resulting from apoptosis or necrosis can be differentiated using propidium iodide (PI) staining intercalation with DNA [24].
as §6

T47D breast cancer cells [6] = experiment: Apoptosis induction, Annexin V/PI flow cytometry, T47D; type: cell-based
Method: as §7, §6

PPAR-γ = conditions: reported in the literature; read-out: EC50, agonistic activity against PPAR-γ; cited from earlier work

## C=C1CC(OC(=O)c2ccccc2)C2C(C)(CO)CC(O)CC2(C)C1CCC(C)=CCO (stereo not drawn) [Compound (1), 2α-hydroxyscopadiol]
[1]
  IC50: 70.6 ± 1.54 µg/mL (≈ 159 µM)
  Selectivity Index (SI) MCF-7: 0.51
[1]; grouped according to IC50
  cytotoxic activity class, MCF-7: strong (“strong cytotoxic” IC50 is 10–100 µg/mL)
T47D breast cancer cells [2]
  IC50: < 3.12 µg/mL
  Selectivity Index (SI) T47D: > 3
T47D breast cancer cells [2]; grouped according to IC50
  cytotoxic activity class, T47D: very strong (“very strong cytotoxic”: IC50 < 10 µg/mL)
Vero cells
  IC50: 36.5 ± 1.41 µg/mL (≈ 82.5 µM)
[3]; 1/2 IC50, 24 h
  % Parent, G1, Cell Cycles against MCF-7: 76.5%
  % Parent, G2-M, Cell Cycles against MCF-7: 17.2%
[3]; 1 IC50, 24 h
  % Parent, G1, Cell Cycles against MCF-7: 78.4%
T47D breast cancer cells [4]; 1/2 IC50, 24 h
  % Parent, G1, Cell Cycles against T47D: 50.9%
T47D breast cancer cells [4]; 1 IC50, 24 h
  % Parent, G1, Cell Cycles against T47D: 53.3%
[5]; 1/2 IC50, 24 h
  Apoptosis against MCF-7, % Parent, P3 (early apoptosis): 33.5%
  Apoptosis against MCF-7, % Parent, P4 (late apoptosis): 16.8%
[5]; 1/4 IC50, 24 h
  Apoptosis against MCF-7, % Parent, P4 (late apoptosis): 15.1%
[5]; 1 IC50, 24 h
  Apoptosis against MCF-7, % Parent, P3 (early apoptosis): 80.7%
  Apoptosis against MCF-7, % Parent, P4 (late apoptosis): 11.7%
T47D breast cancer cells [6]; 1/2 IC50, 24 h
  Apoptosis against T47D, % Parent, P3 (early apoptosis): 6.1%
  Apoptosis against T47D, % Parent, P4 (late apoptosis): 3.0%
T47D breast cancer cells [6]; 1/4 IC50, 24 h
  Apoptosis against T47D, % Parent, P3 (early apoptosis): 5%
T47D breast cancer cells [6]; 1 IC50, 24 h
  Apoptosis against T47D, % Parent, P3 (early apoptosis): 24.8%
  Apoptosis against T47D, % Parent, P4 (late apoptosis): 2.9%

## C=C1[C@@H](OC(C)=O)[C@H](OC(=O)c2ccccc2)[C@H]2[C@@](C)(CCC[C@]2(C)C(=O)O)[C@H]1CC/C(C)=C/CO [Compound (3), 4-epi-7α-O-acetylscoparic acid A]
PPAR-γ
  EC50: 900 ± 300 nM

## COc1cccc2c1C(=O)c1c(O)c3c(c(O)c1C2=O)C[C@@](O)(C(=O)CO)C[C@@H]3O[C@H]1C[C@H](N)[C@H](O)[C@H](C)O1 [Doxorubicin, reference compound]
[1]
  IC50: 16.6 ± 5.85 µg/mL (≈ 30.6 µM)
  Selectivity Index (SI) MCF-7: 4.2
T47D breast cancer cells [2]
  IC50: 35.1 ± 3.14 µg/mL (≈ 64.5 µM)
  Selectivity Index (SI) T47D: < 3
Vero cells
  IC50: 69.5 ± 6.8 µg/mL (≈ 128 µM)
